Results published in PubChem BioAssay AID328 (DTP/NCI, 2004).
Values joined by “and” are separate entries in the source; they are usually repeats but may differ in a detail not shown here. Equal values may be shown once. Inconclusive results and toxic doses are left out. The calls were made as follows: active = survival T/C of 150% or more; inactive = T/C below 125% in these data.

System: BDF1 mice, P388 leukemia ip, median survival T/C
Experiment: NCI In Vivo Anticancer Drug Screen. Data for tumor model P388 Leukemia (intraperitoneal) in B6D2F1 (BDF1) mice
Conditions: endpoint: median survival time, higher = longer survival
Summary of the method: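 Compound-treated tumour-bearing mice were compared with vehicle-treated controls. Survival was recorded, and the value is the treated-group measurement divided by the control-group measurement (T/C).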

[1] = dose: 25.0 mg/kg/injection, schedule: Q01DX009 (ip), vehicle: saline with Tween-80
[2] = dose: 50.0 mg/kg/injection, schedule: Q01DX009 (ip), vehicle: saline with Tween-80
[3] = dose: 100.0 mg/kg/injection, schedule: Q01DX009 (ip), vehicle: saline with Tween-80
[4] = dose: 200.0 mg/kg/injection, schedule: Q01DX009 (ip), vehicle: saline with Tween-80
[5] = dose: 400.0 mg/kg/injection, schedule: Q01DX009 (ip), vehicle: saline with Tween-80
[6] = dose: 100.0 mg/kg/injection, schedule: Q04DX003 (ip), vehicle: saline with Tween-80
[7] = dose: 200.0 mg/kg/injection, schedule: Q04DX003 (ip), vehicle: saline with Tween-80
[8] = dose: 50.0 mg/kg/injection, schedule: Q04DX003 (ip), vehicle: saline
[9] = dose: 100.0 mg/kg/injection, schedule: Q04DX003 (ip), vehicle: saline
[10] = dose: 50.0 mg/kg/injection, schedule: Q01DX009 (ip), vehicle: Klucel (hydroxypropylcellulose) (HPC)
[11] = dose: 100.0 mg/kg/injection, schedule: Q01DX009 (ip), vehicle: Klucel (hydroxypropylcellulose) (HPC)
[12] = dose: 200.0 mg/kg/injection, schedule: Q01DX009 (ip), vehicle: Klucel (hydroxypropylcellulose) (HPC)
[13] = dose: 400.0 mg/kg/injection, schedule: Q01DX009 (ip), vehicle: Klucel (hydroxypropylcellulose) (HPC)

Measured: T/C

CCCC(=O)N(C)C(C)C(=O)OC1CC(=O)N(C)c2cc(cc(OC)c2Cl)C/C(C)=C/C=CC(OC)C2(O)CC(OC(=O)N2)C(C)C2OC12C (stereo not drawn)
inactive: dose: 0.1 micrograms/kg/injection, schedule: Q01DX009 (ip), vehicle: saline + alcohol 97 % of control | dose: 0.2 micrograms/kg/injection, schedule: Q01DX009 (ip), vehicle: saline + alcohol 93 % of control | dose: 0.4 micrograms/kg/injection, schedule: Q01DX009 (ip), vehicle: saline + alcohol 104 % of control | dose: 0.8 micrograms/kg/injection, schedule: Q01DX009 (ip), vehicle: saline + alcohol 96 % of control and 112 % of control | dose: 0.8 micrograms/kg/injection, schedule: Q01DX009 (ip), vehicle: saline 104 % of control | dose: 1.6 micrograms/kg/injection, schedule: Q01DX009 (ip), vehicle: saline + alcohol 102 % of control and 107 % of control | dose: 1.6 micrograms/kg/injection, schedule: Q01DX009 (ip), vehicle: saline 105 % of control | dose: 3.1 micrograms/kg/injection, schedule: Q01DX009 (ip), vehicle: saline + alcohol 88 % of control and 111 % of control | dose: 3.1 micrograms/kg/injection, schedule: Q01DX009 (ip), vehicle: saline 105 % of control | dose: 6.2 micrograms/kg/injection, schedule: Q01DX009 (ip), vehicle: saline + alcohol 92 % of control and 114 % of control | dose: 6.2 micrograms/kg/injection, schedule: Q01DX009 (ip), vehicle: saline 96 % of control | dose: 12.5 micrograms/kg/injection, schedule: Q01DX009 (ip), vehicle: saline + alcohol 113 % of control | dose: 12.5 micrograms/kg/injection, schedule: Q01DX009 (ip), vehicle: saline 110 % of control | dose: 25.0 micrograms/kg/injection, schedule: Q01DX009 (ip), vehicle: saline + alcohol 97 % of control | dose: 25.0 micrograms/kg/injection, schedule: Q01DX009 (ip), vehicle: saline 107 % of control | dose: 25.0 nanograms/kg/injection, schedule: Q## X009 (ip), vehicle: other 94 % of control | dose: 50.0 micrograms/kg/injection, schedule: Q01DX009 (ip), vehicle: saline + alcohol 105 % of control and 122 % of control | dose: 50.0 micrograms/kg/injection, schedule: Q01DX009 (ip), vehicle: saline 116 % of control | dose: 100.0 micrograms/kg/injection, schedule: Q01DX009 (ip), vehicle: saline + alcohol 111 % of control | dose: 200.0 micrograms/kg/injection, schedule: Q01DX009 (ip), vehicle: saline + alcohol 111 % of control and 117 % of control | dose: 200.0 nanograms/kg/injection, schedule: Q## X009 (ip), vehicle: other 88 % of control | dose: 400.0 nanograms/kg/injection, schedule: Q## X009 (ip), vehicle: other 102 % of control

S=c1[nH]c2nccnc2[nH]1
inactive: [1] 95 % of control | [2] 100 % of control | [3] 95 % of control | [4] 95 % of control | [5] 104 % of control

Cc1c2c(O)c(O)c(O)cc2c[n+]2ccccc12
inactive: dose: 6.25 mg/kg/injection, schedule: Q01DX009 (ip), vehicle: saline 100 % of control | dose: 12.5 mg/kg/injection, schedule: Q01DX009 (ip), vehicle: saline 106 % of control | dose: 25.0 mg/kg/injection, schedule: Q01DX009 (ip), vehicle: saline 123 % of control

C/C=C1\CN(C)[C@H]2Cc3c([nH]c4ccccc34)[C@@H](c3cc4[nH]c5c(c4cc3OC)CCN3C[C@H]4C[C@H](CC)[C@H]3[C@@]5(C(=O)OC)C4)C[C@H]1C2C(=O)OC (stereo partly drawn)
inactive: dose: 5.0 mg/kg/injection, schedule: Q01DX010 (ip), vehicle: water 90 % of control | dose: 10.0 mg/kg/injection, schedule: Q01DX010 (ip), vehicle: water 109 % of control | dose: 20.0 mg/kg/injection, schedule: Q01DX010 (ip), vehicle: water 118 % of control

OC(CCl)Cc1ccccc1 (stereo not drawn)
inactive: [1] 109 % of control | [2] 109 % of control

COC(=O)C(CSCSC)NC(=O)/C=C\c1ccccc1 (stereo not drawn)
inactive: [2] 100 % of control | [3] 104 % of control | [6] 95 % of control | [4] 109 % of control | [7] 91 % of control | [5] 90 % of control

Clc1ccc(-c2nc3ncccn3n2)cc1
inactive: dose: 12.5 mg/kg/injection, schedule: Q01DX009 (ip), vehicle: saline with Tween-80 106 % of control | [1] 95 % of control | [2] 91 % of control and 95 % of control | [4] 101 % of control

CCCCCCCCCCC(=O)CCCCCC
inactive: dose: 100.0 mg/kg/injection, schedule: Q04DX003 (ip), vehicle: other 104 % of control | dose: 200.0 mg/kg/injection, schedule: Q04DX003 (ip), vehicle: other 122 % of control | dose: 400.0 mg/kg/injection, schedule: Q04DX003 (ip), vehicle: other 109 % of control

CCCCCC[n+]1cccc(C(N)=O)c1
inactive: [8] 104 % of control | [9] 100 % of control | dose: 200.0 mg/kg/injection, schedule: Q04DX003 (ip), vehicle: saline 95 % of control

CCOC(=O)CCCN(c1sc(C)c(-c2ccccc2)c1C(=O)OCC)S(=O)(=O)c1ccc(C)cc1
inactive: [3] 109 % of control | [4] 90 % of control

[O-][Cl+3]([O-])([O-])O.[O-][n+]1c2ccccc2nc2ccccc21.[Zn+2]
inactive: [2] 123 % of control

O=C(/C=C/c1ccccc1)N1CCOCC1
inactive: [8] 95 % of control | [9] 95 % of control

COc1cc2c3c4c1OCc1c5c(cc(c1-4)CC3[N+](C)(C)CC2)OCO5 (stereo not drawn)
inactive: dose: 6.25 mg/kg/injection, schedule: Q01DX001 (ip), vehicle: saline 105 % of control | dose: 12.5 mg/kg/injection, schedule: Q01DX001 (ip), vehicle: saline 99 % of control

S=C1N=C2c3ccccc3C2C(=S)S1 (stereo not drawn)
inactive: [2] 109 % of control | [3] 98 % of control | dose: 150.0 mg/kg/injection, schedule: Q01DX009 (ip), vehicle: saline with Tween-80 94 % of control

CNC(=S)/N=C(\N)n1nc(C)cc1C
inactive: dose: 15.0 mg/kg/injection, schedule: Q01DX009 (ip), vehicle: saline with Tween-80 104 % of control | dose: 30.0 mg/kg/injection, schedule: Q01DX009 (ip), vehicle: saline with Tween-80 112 % of control | dose: 60.0 mg/kg/injection, schedule: Q01DX009 (ip), vehicle: saline with Tween-80 112 % of control

Cc1[nH]c(=O)[nH]c(=O)c1C
inactive: [10] 104 % of control | [11] 109 % of control | [12] 104 % of control

Cc1nc2c(=O)n(C)c(=O)n(C)c2n1C
inactive: dose: 50.0 mg/kg/injection, schedule: Q04DX003 (ip), vehicle: saline with Tween-80 100 % of control | [6] 90 % of control | [7] 100 % of control

CC1C(=O)OC(C)(C)OC1=O
inactive: dose: 25.0 mg/kg/injection, schedule: Q01DX009 (ip), vehicle: Klucel (hydroxypropylcellulose) (HPC) 106 % of control | dose: 25.0 mg/kg/injection, schedule: Q04DX003 (ip), vehicle: Klucel (hydroxypropylcellulose) (HPC) 91 % of control | [10] 97 % of control | dose: 50.0 mg/kg/injection, schedule: Q04DX003 (ip), vehicle: Klucel (hydroxypropylcellulose) (HPC) 123 % of control | [11] 105 % of control | dose: 100.0 mg/kg/injection, schedule: Q04DX003 (ip), vehicle: Klucel (hydroxypropylcellulose) (HPC) 97 % of control | [12] 104 % of control | dose: 200.0 mg/kg/injection, schedule: Q04DX003 (ip), vehicle: Klucel (hydroxypropylcellulose) (HPC) 94 % of control | [13] 99 % of control | dose: 400.0 mg/kg/injection, schedule: Q04DX003 (ip), vehicle: Klucel (hydroxypropylcellulose) (HPC) 106 % of control

COc1c(C)cc(Br)c2c1C(CCN(C)S(=O)(=O)Cc1ccccc1)CCC2 (stereo not drawn)
inactive: [11] 100 % of control | [12] 110 % of control | [13] 110 % of control

COc1cc([C@@H]2c3cc4c(cc3[C@H](OC3OC5COC(c6ccccc6)OC5C(O)C3O)[C@H]3COC(=O)[C@H]23)OCO4)cc(OC)c1OC (stereo partly drawn)
active: dose: 3.1 mg/kg/injection, schedule: Q01DX010 (ip), vehicle: carboxymethylcellulose (CMC) 180 % of control | dose: 6.2 mg/kg/injection, schedule: Q01DX010 (ip), vehicle: carboxymethylcellulose (CMC) 210 % of control | dose: 12.5 mg/kg/injection, schedule: Q01DX010 (ip), vehicle: carboxymethylcellulose (CMC) 235 % of control | dose: 25.0 mg/kg/injection, schedule: Q01DX010 (ip), vehicle: carboxymethylcellulose (CMC) 270 % of control | dose: 50.0 mg/kg/injection, schedule: Q01DX010 (ip), vehicle: carboxymethylcellulose (CMC) 300 % of control
